Measured values: patent US9132179B2, “Compositions for reducing bacterial carriage and CNS invasion and methods of using same” (The UAB Research Foundation, priority 2003, dated 2015)

Tests used:
[1] = tested on: TIGR4 strain; assay: Attachment of TIGR4 strain to ganglioside-coated ELISA plates, short-term incubation; assay type: binding, S. pneumoniae
Method: The ability of the TIGR4, and its nanA and nanB mutants to bind to specific gangliosides is measured. The gangliosides used include mixed gangliosides, asialo-GM1, GM1, GD1a, GD1b, GT1 (Calbiochem) and the GM3 ganglioside (Sigma). The GM3 ganglioside lacks the terminal or internal GalNAcβ1-4Gal sequence involved in pneumococcal binding and is used as a negative control. These mixed, mono-, di- or tri-sialic acid containing gangliosides bind readily to ELISA plates. […] Using ganglioside-coated plates, the ability to attach to these plates by wildtype TIGR4 strain, the stable opaque and transparent phase variants of the TIGR4 strain, the nanA, nanB, and nanA/nanB mutant strains is compared. These analyses include short-term incubation (1 hr) and extended incubations (24 hrs) on ganglioside-coated plates. Attached pneumococci are removed from the ganglioside plates by short incubation (10-15 min.) in Todd Hewitt medium containing 0.5% yeast extract followed by repeated pipetting and plating the released bacteria on blood agar plates. Alternatively 41° C. Todd Hewitt broth agar containing 0.5% yeast extract is poured on top of the attached pneumococci and the colonies are counted through the bottom of the plate. Controls include plates with no pneumococci and plates with no gangliosides but with pneumococci.

[2] = tested on: S. pneumoniae strain EF3030; assay: GLS preincubation of S. pneumoniae strain EF3030 before nasal application; CFU in tissues; assay type: in vivo; conditions: EF3030 preincubated with GLS, xid mice, four days after nasal application
Method: Aliquots (3×10^7 CFUs) of S. pneumoniae were incubated for 30 minutes with 20 μg asialo-GM1 (a-GM1) or 125 μg of mixed GLSs (MG) prior to nasal application. The ON/E, OBs, brain and NW, NALT and lungs were collected four days later and analyzed for numbers of S. pneumoniae. The 0 value on the Y-axis represents the absence of detectable CFUs. Indicated are the mean+one SE of 5 mice and the P-values were obtained following statistical analysis. The data are representative of two separate experiments.
The blood was collected into a heparinized capillary tube from the retroorbital plexus. Mice were disinfected with 70% ethanol prior to collection of nasal wash (NW), kidney, spleen, and lungs. […]
Eight serial, three-fold dilutions were made of tissues and body fluids in sterile Ringer's solution and plated on blood agar plates containing 4 μg/ml of gentamicin sulfate. […] The results were expressed as CFUs/organ, per NW or per ml of blood.
To block GLS binding sites, 3×10^7 CFU of S. pneumoniae strain EF3030 were incubated for 30 min on ice with either 20 μg asialo-GM1 from human brain or 125 μg of mixed GLSs (18% GM1, 55% GD1a, 15% GD1b, 10% GT1b, 2% other GLSs) from bovine brain (Calbiochem-Novabiochem Corporation, Inc., La Jolla, Calif.). […] Tissues were analyzed for CFUs four days later.

[3] = GM1-binding peptide; cited from earlier work

| Substance | binding of pneumococci to coated plates [1] | reduction of colonization in CNS ([2]; CNS tissue) | reduction of colonization in lungs ([2]; lungs) | IC50 [3] |
| --- | --- | --- | --- | --- |
| GM3 [GM-3] | not |  |  |  |
| GM1 | not |  |  |  |
| asialo-GM1 | bind and attachment | 25 fold | 63 fold |  |
| VWRLLAPPFSNRLLP |  |  |  | 1000 nM |
